Reference: patent US7129243B2, “Peptide compounds” (Astellas Pharma Inc., priority 2001, dated 2006)

Test system: production of nitric oxide in murine macrophage cell line RAW264.7
Experiment: Assay for inhibitory activity on the production of nitric oxide
Assay type: cell-based
Settings: Mus musculus; test compound 10^−6 M; RAW264.7 cells activated with LPS (1 μg/ml) and INF γ (3 u/ml) for 18–24 hours; NO2^− by Griess reagent
Description: The murine macrophage cell line RAW264.7 (American Type Culture Collection, No. TIB71) was used in this study. RAW264.7 cells were grown on […] plastic culture flasks at 37° C., 5% in Dulbecco's modified Eagle's medium (DMEM) supplemented with L-glutamine, penicillin, streptomycin and 10% heat-inactivated fetal bovine serum. They were removed from culture flasks by rubber cell scraper and were centrifuged and resuspended in DEM without phenol red. They were plated in 96-well microtiter plates (10^5 cells per well) and allowed to adhere over 2 hours. The test samples were added and the cells were preincubated for 1 hour. Thereafter the cells were activated with both of lipopolysaccharide (LPS) (1 μg/ml) and interferon γ (INF γ) (3 u/ml) for 18-24 hours. An equal volume of Griess reagent (1% sulfanilamide/0.1% N-naphthylethylenediamine dihydrochloride/2.5% H3PO4) was added and the cells were incubated at room temperature for 10 minutes. The absorbance was read at 570 nm using microplate reader and NO2^- was measured using NaNO2 as a standard.

SMILES	inhibition at 1 µM [%]
O=C(/C=C/c1ccc(Cl)cc1)N[C@@H](Cc1ccccn1)C(=O)NCC(=O)N1CCC(Oc2cnccn2)CC1 [Compound (b), (2E)-3-(4-Chlorophenyl)-N-[(1S)-2-oxo-2-({2-oxo-2-[4-(2-pyrazinyloxy)-1-piperidinyl]ethyl}amino)-1-(2-pyridylmethyl)ethyl]acrylamide]	97.6
O=C(/C=C/c1ccc(Cl)cc1)N[C@@H](Cc1ccccn1)C(=O)NCC(=O)N1CCC(Oc2ccccc2)CC1 [Compound (e), (2E)-3-(4-Chlorophenyl)-N-[(1S)-2-oxo-2-{[2-oxo-2-(4-phenoxy-1-piperidinyl)ethyl]amino}-1-(2-pyridylmethyl)ethyl]-acrylamide]	100
O=C(N[C@@H](Cc1ccccn1)C(=O)NCC(=O)N1CCC(Oc2ccccn2)CC1)c1cc2cc(Cl)ccc2o1 [Compound (d), 5-Chloro-N-[(1S)-2-oxo-2-({2-oxo-2-[4-(2-pyridyloxy)-1-piperidinyl]ethyl}amino)-1-(2-pyridylmethyl)ethyl]-1-benzofuran-2-carboxamide]	100
CC(C)OC1CCN(C(=O)CNC(=O)[C@H](Cc2ccccn2)NC(=O)/C=C/c2ccc(Cl)cc2)CC1 [Compound (g), (2E)-3-(4-Chlorophenyl)-N-[(1S)-2-{[2-(4-isopropoxy-1-piperidinyl)-2-oxoethyl]amino}-2-oxo-1-(2-pyridylmethyl)ethyl]acrylamide]	100
COc1cccc(OC2CCN(C(=O)CNC(=O)[C@H](Cc3ccccn3)NC(=O)c3cc4cc(Cl)ccc4o3)CC2)n1 [Compound (c), 5-Chloro-N-[(1S)-2-[(2-{4-[(6-methoxy-2-pyridyl)oxy]-1-piperidinyl}-2-oxoethyl)amino]-2-oxo-1-(2-pyridylmethyl)ethyl]-1-benzofuran-2-carboxamide]	100
O=C(N[C@@H](Cc1ccccn1)C(=O)NCC(=O)N1CCC(OCC(F)(F)F)CC1)c1cc2cc(Cl)ccc2o1 [Compound (f), 5-Chloro-N-[(1S)-2-oxo-2-({2-oxo-2-[4-(2,2,2-trifluoroethoxy)-1-piperidinyl]ethyl}amino)-1-(2-pyridylmethyl)-ethyl]-1-benzofuran-2-carboxamide]	100
O=C(N[C@@H](Cc1ccccn1)C(=O)NCC(=O)N1CCC(Oc2nccs2)CC1)c1cc2cc(Cl)ccc2o1 [Compound (a), 5-Chloro-N-[(1S)-2-oxo-2-({2-oxo-2-[4-(1,3-thiazol-2-yloxy)-1-piperidinyl]ethyl}amino)-1-(2-pyridylmethyl)ethyl]-1-benzofuran-2-carboxamide]	100
